Source: patent US20260053931A1, “MDM2 TARGETING PROTACS” (THE WISTAR INSTITUTE OF ANATOMY AND BIOLOGY, priority 2023, published 2026)

What was measured:
SCC-25 = experiment: Cell death of other cancer cell lines: SCC-25; type: cell-based; details: Homo sapiens; SCC-25, Head & Neck
Method: (§1) The PROTACs prepared herein were tested for their use in other cancer cell lines to determine activity in multiple different types of cancer.

[1] = test system: TNBC patient-derived explants; experiment: Patient-derived TNBC explants; type: cell-based, human
Method: FIGS. 27A-27E show TP53 mutant TNBC patient-derived explants undergo apoptosis following treatment with the MDM2-PROTAC YX-02-030. A. TP53 sequenced in five fresh TNBC patient samples and used in explant and 3D mammosphere cultures. B-C. TNBC patient-derived explants were treated with the compounds indicated and Western blotting (B) and immunohistochemistry (IHC) of FFPE sections for cleaved Caspase-3 (C, n=3 paired patient samples) were performed. Representative images of H&E and cleaved Caspase-3 (CC3) IHC shown, including normal breast epithelium treated with MDM2-PROTAC YX-02-030; scale bar 300 m. D-E. Mammosphere cultures were established from TNBC patient samples, treated with the indicated compounds, and live-cell detection of Caspase-3/7 activity (D, quadruplicate) and mammosphere survival/ATP production (E, quadruplicate) were measured.
To assess the effects of YX-02-030 on TNBC patient samples, fresh, surgically-resected tumor from five TNBC patients was obtained, and 80% were from Black/African American patients (FIG. 26). Each tumor had TP53 missense mutations with two having the same hot-spot (R248Q) p53 mutation and one that had 3 TP53 mutations (FIG. 27A). […]

[2] = test system: Mdm2-/-p53-/- sarcoma cells; experiment: Murine Mdm2-/-p53-/- sarcoma cells, MTT; type: cell-based, mouse; details: MTT assay, 48 hrs
Text: A-B. Murine Mdm2+/+p53-null sarcoma cells treated with Mdm2 PROTAC (YX-02-030), control YX-02-023 (−), or vehicle (DMSO). A. Western blots after 24 hrs (cleaved caspase 3, CC3. Mdm2^−/−p53^−/− fibroblasts were a control for the Western blot). B. Dose response curve (MTT assay, 48 hrs). C. Dose response curves of murine Mdm2^−/−p53^−/− sarcoma cells treated with Mdm2 PROTAC (YX-02-030), negative controls (−), a Bcl2/Bclx/Bclw inhibitor (+), or vehicle control (MTT assay, quadruplicate, 48 hrs- MTT assay, B-C graphed relative to DMSO).

[3] = test system: MDA-MB-231 and MDA-MB-436 cells; experiment: Mammosphere formation in 3D culture; type: cell-based, human; details: each concentration tested, 72 hrs, compared to MDM2 inhibitors and vehicle
Method: FIGS. 21A-21E show the apoptosis induction of p53-inactivated TNBC cells in 2D and 3D cultures by the MDM2-PROTAC YX-02-030. A-B. Colony formation assays (A. Triplicate, 12 days) and mammosphere formation (B. Triplicate 72 hrs) of MDA-MB-231 and MDA-MB-436 cells in the presence of the indicated compounds or DMSO control (−); representative pictures shown. C-E. Formed mammospheres of MDA-MB-231 and MDA-MB-436 cells were treated with the compounds indicated or DMSO control (−), and area (C. n=10 mammospheres, relative to pre-treatment area, 72 hr), real-time imaging (IncuCyte) and quantification of Caspase-3/7 activity (D. n=4-5 wells/compound), and survival/ATP assays (E. Quadruplicate, 72 hr) were performed; representative images shown; scale bar 300 m. Mean±SEM (A-C and E). For A, *P<0.0001 and **P<0.0001, comparing 1 M and 2 M PROTAC, respectively, to control compounds and DMSO vehicle control. For B, *P<0.0046, **P<0.0001, and ***P<0.0001, comparing 0.5 M, 1 M, and 2 M PROTAC, respectively, to control compounds and DMSO vehicle control. For C, *P<0.0001 and **P<0.0001, comparing 2 M and 4 M/6 M PROTAC, respectively, to control compounds and DMSO vehicle control. […]
These were then evaluated in 3D culture as to when the YX-02-030 was effective at preventing TNBC cell mammosphere formation and eliminating already formed mammospheres. […]

[4] = test system: p53-null mouse sarcoma cells; experiment: Murine Mdm2+/+ p53-null sarcoma cells, Western blot and MTT; type: cell-based
MDA-MB-231 cells = experiment: Proteomics analysis of degradation selectivity; type: cell-based, human; details: 5 μM, 8 hours
Method: A proteomics analysis was performed to assess the selectivity of degradation by YX-02-030. MDA-MB-231 cells were treated for 8 hours with 5 μM of YX-02-030 or DMSO in triplicate and processed to provide 25 μg of protein loaded on a 10% acrylamide gel. The entire protein-containing gel regions were excised, digested with trypsin and analyzed by liquid chromatography tandem mass spectrometry (LC-MS/MS) using a 240-min gradient as described (Chae et al., 2016). Peptide sequences were identified using MaxQuant 1.6.3.3 (Cox & Mann, 2008). MS/MS spectra were searched against a UniProt human protein database. […] Under these experimental conditions Mdm2 was not able to be detected either in the treated or untreated samples.

OVCAR3 = experiment: Cell death of other cancer cell lines: OVCAR3; type: cell-based; details: Homo sapiens, OVCAR-3; OVCAR3, Ovarian
Method: as §1

VHL = VHL (Homo sapiens, UniProt P40337); experiment: HTRF binding assay for VHL (Table 2)
Chain of VHL (P40337 whole entry): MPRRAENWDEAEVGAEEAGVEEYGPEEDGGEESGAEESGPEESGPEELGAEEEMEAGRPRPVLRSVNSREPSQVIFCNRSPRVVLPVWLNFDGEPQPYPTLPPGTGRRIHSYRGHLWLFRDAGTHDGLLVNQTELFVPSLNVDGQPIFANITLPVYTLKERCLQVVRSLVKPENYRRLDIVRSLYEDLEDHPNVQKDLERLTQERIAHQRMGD
Chain of VHL (Q15370 whole entry partner): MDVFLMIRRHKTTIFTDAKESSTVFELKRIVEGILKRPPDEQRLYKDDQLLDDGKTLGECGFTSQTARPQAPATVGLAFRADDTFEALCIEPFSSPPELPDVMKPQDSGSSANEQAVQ
Chain of VHL (Q15369 whole entry partner): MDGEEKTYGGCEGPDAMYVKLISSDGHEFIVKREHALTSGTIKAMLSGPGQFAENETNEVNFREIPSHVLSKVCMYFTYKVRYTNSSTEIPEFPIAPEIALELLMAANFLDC
Text: Biochemical assays in 384-well format have established to assess the binding of newly synthesized PROTACs to the appropriate E3 ligase using HTRF technology. In these assays an anti-HIS antibody conjugated to terbium was used as the donor fluor, and either a Cy5 labeled small molecule probe, or a biotinylated peptide that is bound to a streptavidin acceptor.

Structure (SMILES) | IC50 (SCC-25) [µM] | apoptosis markers by Western blot ([1]; explants) | MDM2 protein in patient tumors ([1]; within 4 days of treatment) | response of Mdm2-/-p53-/- sarcoma cells [2] | mammosphere formation [3] | p73 and apoptosis (cleaved caspase 3) ([4]; Western blots after 24 hrs) | killing of p53-null sarcoma cells ([4]; increasing concentrations, MTT assay, 48 hrs) | observable proteins affected (MDA-MB-231 cells) [%] | proteins significantly changed out of 4237 (MDA-MB-231 cells) [proteins] | IC50 (OVCAR3) [µM] | IC50 (VHL) [µM]
CCOc1cc(C(C)(C)C)ccc1C1=N[C@](C)(c2ccc(Cl)cc2)[C@](C)(c2ccc(Cl)cc2)N1C(=O)N1CCN(CC(=O)NCCOCCOCCOCC(=O)N[C@H](C(=O)N2C[C@H](O)C[C@H]2C(=O)NCc2ccc(-c3scnc3C)cc2)C(C)(C)C)CC1 (racemic) [YX-02-030] | 3.1 | increased levels of cleaved Caspase-3 and cleaved PARP | MDM2 protein was lost | not responsive | significantly fewer mammospheres formed | stabilized p73 and induced apoptosis | killed p53-null sarcoma cells | < 10 | 31 | 4.5 | –
CCOc1cc(C(C)(C)C)ccc1C1=N[C@](C)(c2ccc(Cl)cc2)[C@](C)(c2ccc(Cl)cc2)N1C(=O)N1CCN(CC(=O)NCCCNC(=O)COc2ccc3c(c2)CN(C(=O)[C@H](NC(=O)[C@@H](C)NC)C(C)(C)C)[C@@H](C(=O)N[C@H]2CCCc4ccccc42)C3)CC1 [YX-02-228, (R)-7-(2-((3-(2-(4-((4R,5S)-2-(4-(tert-butyl)-2-ethoxyphenyl)-4,5-bis(4-chlorophenyl)-4,5-dimethyl-4,5-dihydro-1H-imidazole-1-carbonyl)piperazin-1-yl)acetamido)propyl)amino)-2-oxoethoxy)-2-((R)-3,3-dimethyl-2-((R)-2-(methylamino)propanamido)butanoyl)-N-((S)-1,2,3,4-tetrahydronaphthalen-1-yl)-1,2,3,4-tetrahydroisoquinoline-3-carboxamide] | – | – | – | – | – | – | – | – | – | – | > 10
